According to patent publication US20260103721A1, “GENES CONTROLLING BARRIER FORMATION IN ROOTS” (The Regents of the University of California, priority 2022, published 2026):

Tests used:
Format in all cases: in vivo, Solanum lycopersicum
[1] = test system: exodermal lignin cap (apoplastic barrier) of tomato root; test: Apoplastic tracer assay with propidium iodide (PI); conditions: 200 μM PA 24 hours, then PI 30 minutes
Procedure: Seeds of M82 were grown in 1% MS+1% sucrose. Four days after germination, plants were transferred to new MS square plates with/without 200 μM of piperonylic acid (Sigma P49805-5G) and 200 μM piperonylic acid plus 10 mM monolignols (Sigma Aldrich 223735-100MG,404586-100MG) for 24 hours in the dark, with DMSO as the solvent. […] The roots were washed in water and one cm segments from the root tip were embedded in 3% agarose and made sections of 150-200 μM using a vibratome (Leica VT1000 S). Confocal Laser Scanning microscopy was performed on a Zeiss LSM700 confocal with the 20× objective, at 405 nm excitation and 600-650 nm detection.

[2] = test system: tomato root; test: Root growth after 24 h piperonylic acid treatment; conditions: 200 μM PA, 4-day-old plants, newly grown root zone after transfer
Procedure: FIG. 7A-B (also referred to as Supplemental FIG. 2 in technical section). […] A. Schematic representation of the experimental design to test the PA. 4-day-old plants after germination were transferred to MS media+1% sucrose with and without 200 μM of PA. After 24 hours, root growth was measured for the part of the root that grew after transferring. Orange horizontal bar=newly grown root after transferring. B. Root growth after 24H in control and PA treatment for the newly root zone after transferring (statistical significance test determined by ANOVA p-value 0.05).
Seeds of M82 were grown in 1% MS+1% sucrose. Four days after germination, plants were transferred to new MS square plates with/without 200 μM of piperonylic acid (Sigma P49805-5G) and 200 μM piperonylic acid plus 10 mM monolignols (Sigma Aldrich 223735-100MG,404586-100MG) for 24 hours in the dark, with DMSO as the solvent. Three cm segments from the root tip including the root meristem were exposed to 15 μg/mL PI (P4170; Sigma) in the dark at 30° C. for 1 h. The roots were washed in water and one cm segments from the root tip were embedded in 3% agarose and made sections of 150-200 μM using a vibratome (Leica VT1000 S). Confocal Laser Scanning microscopy was performed on a Zeiss LSM700 confocal with the 20× objective, at 405 nm excitation and 600-650 nm detection.

[3] = test system: root lignin biosynthesis within the endodermis and exodermis; test: Root lignin deposition (basic fuchsin staining) after PA treatment; conditions: 200 μM PA, 24 hours
Procedure: For root sections stained with basic fuchsin (Fisher scientific Cat no 632-99-5) and calcofluor white (PhytoTechnology laboratories Cat no 4404-43-7), 1 cm segments from the root tip were embedded in 3% agarose and were sectioned at 150-200 μM using a vibratome (Leica VT1000 S). The sections were stained in Clearsee buffer (Ursache et al. 2018) with basic fuchsin for 30 minutes then washed two times. In some cases, the sections were stained with calcofluor after basic fuchsin for 30 minutes and washed two times. Confocal Laser Scanning microscopy was performed on a Zeiss LSM700 confocal with the 20× objective, basic fuchsin: 550-561 nm excitation and 570-650 nm detection. Root samples were mounted in ClearSee (Ursache et al., 2018) and scanned and imaged on a Zeiss Observer Z1 with the 20× or 40× objective, basic fuchsin: 550-561 nm excitation and 570-650 nm detection and calcofluor white: 405 nm excitation and 425-475 nm detection.
Seeds of M82 were grown in 1% MS+1% sucrose. Four days after germination, plants were transferred to new MS square plates with/without 200 μM of piperonylic acid (Sigma P49805-5G) and 200 μM piperonylic acid plus 10 mM monolignols (Sigma Aldrich 223735-100MG,404586-100MG) for 24 hours in the dark, with DMSO as the solvent. […]

## O=C(O)c1ccc2c(c1)OCO2 [PA, Piperonylic acid]
[1]
  PI penetration into cortex cells: Pt was observed after exposure within cortex cells
[1]; control versus PA-treated
  PI signal in the exodermal lignin cap (PI blockage): more intense in control relative to PA-treated plants
[2]
  root growth: does not interfere with root growth
[2]; listed as Piperonylic acid
  root growth: does not affect root growth
[3]
  root lignin biosynthesis within the endodermis and exodermis: does disrupt root lignin biosynthesis
